{"source": "ChEMBL document CHEMBL6121046", "about": "“Discovery of Novel Hydrazide-Based HDAC3 Inhibitors as Epigenetic Immunomodulators for Cancer Immunotherapy” (J Med Chem, 2025)", "key": {"Mus musculus [1]": {"test_system": "Mus musculus", "experiment": "(§1) Immunomodulatory effect in C57BL/6 mouse allografted mouse MC38 cells assessed as increase in tumor infiltrating lymphocytes by measuring increase in CD8+ T helper cells in mouse spleen at 50 mg/kg, po treated 5 days after cell inoculation 19 th day by flow cytometry analysis (reference value: 13.6%)", "format": "functional", "details": "time 15 day"}, "Mus musculus [2]": {"test_system": "Mus musculus", "experiment": "as §1, with “CD4+” for “CD8+”, “lymph nodes” for “spleen”, “15.5%)” for “13.6%)”", "format": "functional", "details": "time 15 day"}, "Mus musculus [3]": {"test_system": "Mus musculus", "experiment": "(§2) Immunomodulatory effect in C57BL/6 mouse allografted mouse MC38 cells assessed as increase in tumor infiltrating lymphocytes by measuring increase in CD8+ T […] cells in tumor at 50 mg/kg, po treated 5 days after cell inoculation 19 th day by flow cytometry analysis (reference value: 2.32%)", "format": "functional", "details": "time 15 day"}, "MC-38 [4]": {"test_system": "MC-38", "experiment": "In vivo antitumor activity against mouse MC38 cells allografted in C57BL/6 mouse assessed as increase in Tunel-positive cells in tumor at 50 mg/kg, po treated 5 days after cell inoculation 19 th day by immunofluorescence analysis", "format": "functional, organism-based", "details": "time 15.0 day"}, "Mus musculus [5]": {"test_system": "Mus musculus", "experiment": "Immunomodulatory effect in C57BL/6 mouse allografted with mouse MC38 cells assessed as increase in tumor infiltrating lymphocytes by measuring increase in CD3+ CD4+ cells at 50 mg/kg, po treated 5 days after cell inoculation 19 th day by flow cytometry analysis", "format": "functional, organism-based", "details": "time 15.0 day"}, "Mus musculus [6]": {"test_system": "Mus musculus", "experiment": "Immunomodulatory effect in C57BL/6 mouse allografted mouse MC38 cells assessed as increase in tumor infiltrating lymphocytes by measuring increase in CD4+ T helper cells in mouse blood at 50 mg/kg, po treated 5 days after cell inoculation 19 th day by flow cytometry analysis (reference value: 0.27%)", "format": "functional", "details": "time 15 day"}, "Mus musculus [7]": {"test_system": "Mus musculus", "experiment": "Induction of PD-L1 expression in tumor in C57BL/6 mouse allografted with mouse MC38 cells in presence of NP19 PD-L1 inhibitor at 50 mg/kg, po treated 5 days after cell inoculation 19 th day by immunofluorescence analysis", "format": "functional, organism-based", "details": "time 15.0 day"}, "MC-38 [8]": {"test_system": "MC-38", "experiment": "In vivo antitumor activity against mouse MC38 cells allografted in C57BL/6 mouse assessed as decrease in […] positive cells in tumor at 50 mg/kg, po treated 5 days after cell inoculation 19 th day by immunofluorescence analysis", "format": "functional, organism-based", "details": "time 15.0 day"}, "[9]": {"experiment": "Oral bioavailability in C57BL/6 mouse allografted with mouse MC38 cells at 50 mg/kg", "format": "ADME, organism-based", "details": "in vivo"}, "MC-38 [10]": {"test_system": "MC-38", "experiment": "In vivo antitumor activity against mouse MC38 cells allografted in C57BL/6 mouse assessed as tumor growth inhibition at 50 mg/kg, po treated 5 days after cell inoculation 19 th day relative to control", "format": "functional", "details": "MC-38, 360 h, time 15 day, read-out: TGI"}, "Mus musculus [11]": {"test_system": "Mus musculus", "experiment": "(§3) Immunomodulatory effect in C57BL/6 mouse allografted mouse MC38 cells assessed as increase in tumor infiltrating lymphocytes by measuring increase in CD4+ T helper cells in tumor at 50 mg/kg, po treated 5 days after cell inoculation 19 th day by flow cytometry analysis (reference value: 2.57%)", "format": "functional", "details": "time 15 day"}, "Mus musculus [12]": {"test_system": "Mus musculus", "experiment": "as §3, with “cells in mouse spleen at 50” for “cells in tumor at 50”, “(reference value: 10.8%)” for “(reference value: 2.57%)”", "format": "functional", "details": "time 15 day"}, "Mus musculus [13]": {"test_system": "Mus musculus", "experiment": "as §2, with “[…] in mouse lymph nodes at 50” for “cells in tumor at 50”, “(reference value: 20.3%)” for “(reference value: 2.32%)”", "format": "functional", "details": "time 15 day"}, "Mus musculus [14]": {"test_system": "Mus musculus", "experiment": "Immunomodulatory effect in C57BL/6 mouse allografted mouse MC38 cells assessed as increase in tumor infiltrating lymphocytes by measuring increase in CD8+ T helper cells in mouse blood at 50 mg/kg, po treated 5 days after cell inoculation 19 th day by flow cytometry analysis (reference value: 0.35%)", "format": "functional", "details": "time 15 day"}}, "note": "The source made the active and inactive calls. The calls are words filed in the database; no cut-off is given here.", "data": [{"smiles": "Cc1c(COc2cc(OCc3cccc(C#N)c3)c(CNC(C)(C)C(=O)O)cc2Cl)cccc1-c1ccccc1", "values": [{"measurement": "Activity", "setting": "Mus musculus [1]", "result": 12.1, "unit": "%"}, {"measurement": "Activity", "setting": "Mus musculus [2]", "result": 11.2, "unit": "%"}, {"measurement": "Activity", "setting": "Mus musculus [3]", "result": 3.18, "unit": "%"}, {"measurement": "Activity", "setting": "MC-38 [4]", "result": "Active"}, {"measurement": "Activity", "setting": "Mus musculus [5]", "result": "inactive"}, {"measurement": "Activity", "setting": "Mus musculus [6]", "result": 0.38, "unit": "%"}, {"measurement": "Activity", "setting": "Mus musculus [7]", "result": "inactive"}, {"measurement": "Activity", "setting": "MC-38 [8]", "result": "inactive"}, {"measurement": "bioavailability", "setting": "[9]", "result": "< 5", "unit": "%"}, {"measurement": "inhibition in vivo at 50 mg/kg", "setting": "MC-38 [10]", "result": 8, "unit": "%"}, {"measurement": "Activity", "setting": "Mus musculus [11]", "result": 2.69, "unit": "%"}, {"measurement": "Activity", "setting": "Mus musculus [12]", "result": 10.2, "unit": "%"}, {"measurement": "Activity", "setting": "Mus musculus [13]", "result": 18.9, "unit": "%"}, {"measurement": "Activity", "setting": "Mus musculus [14]", "result": 0.42, "unit": "%"}]}]}
